Results published in PubChem BioAssay AID248 (DTP/NCI, 2004).
Values joined by “and” are separate entries in the source; they are usually repeats but may differ in a detail not shown here. Equal entries are not always repeated. Toxic doses and inconclusive results are not listed.

Tested on: L1210 leukemia ip in BDF1 mice, survival T/C
Experiment: NCI In Vivo Anticancer Drug Screen. Data for tumor model L1210 Leukemia (intraperitoneal) in B6D2F1 (BDF1) mice
Details: endpoint: mean survival time, higher = longer survival
Method in brief: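 Transplanted-tumor mice were given test agent; controls received vehicle only. Survival readings from the two groups were divided (treated over control).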

[1] = dose: 100.0 mg/kg/injection, schedule: Q01DX009 (ip), vehicle: saline with Tween-80
[2] = dose: 200.0 mg/kg/injection, schedule: Q01DX009 (ip), vehicle: saline with Tween-80
[3] = dose: 100.0 mg/kg/injection, schedule: Q04DX003 (ip), vehicle: saline
[4] = dose: 200.0 mg/kg/injection, schedule: Q04DX003 (ip), vehicle: saline
[5] = dose: 400.0 mg/kg/injection, schedule: Q04DX003 (ip), vehicle: saline
[6] = dose: 100.0 mg/kg/injection, schedule: Q01DX001 (ip), vehicle: carboxymethylcellulose (CMC)
[7] = dose: 200.0 mg/kg/injection, schedule: Q01DX001 (ip), vehicle: carboxymethylcellulose (CMC)
[8] = dose: 400.0 mg/kg/injection, schedule: Q01DX001 (ip), vehicle: carboxymethylcellulose (CMC)
[9] = dose: 100.0 mg/kg/injection, schedule: Q01DX009 (ip), vehicle: Klucel (hydroxypropylcellulose) (HPC)
[10] = dose: 100.0 mg/kg/injection, schedule: Q04DX003 (ip), vehicle: Klucel (hydroxypropylcellulose) (HPC)
[11] = dose: 200.0 mg/kg/injection, schedule: Q01DX009 (ip), vehicle: Klucel (hydroxypropylcellulose) (HPC)
[12] = dose: 200.0 mg/kg/injection, schedule: Q04DX003 (ip), vehicle: Klucel (hydroxypropylcellulose) (HPC)
[13] = dose: 400.0 mg/kg/injection, schedule: Q04DX003 (ip), vehicle: Klucel (hydroxypropylcellulose) (HPC)
[14] = dose: 100.0 mg/kg/injection, schedule: Q01DX001 (ip), vehicle: saline
[15] = dose: 200.0 mg/kg/injection, schedule: Q01DX001 (ip), vehicle: saline
[16] = dose: 400.0 mg/kg/injection, schedule: Q01DX001 (ip), vehicle: saline
[17] = dose: 50.0 mg/kg/injection, schedule: Q01DX001 (ip), vehicle: saline

For `Nc1ccc(Cl)cc1N`, the T/C (dose: 90.0 mg/kg/injection, schedule: Q01DX001 (ip), vehicle: other) was 100 % of control, the T/C (dose: 90.0 mg/kg/injection, schedule: Q04DX003 (ip), vehicle: other) was 97 % of control and the T/C [1] was 104 % of control. The T/C (dose: 100.0 mg/kg/injection, schedule: Q04DX002 (ip), vehicle: other) was 107 % of control, the T/C (dose: 175.0 mg/kg/injection, schedule: Q01DX001 (ip), vehicle: other) was 105 % of control and the T/C (dose: 175.0 mg/kg/injection, schedule: Q01DX009 (ip), vehicle: other) was 111 % of control. The T/C (dose: 175.0 mg/kg/injection, schedule: Q04DX003 (ip), vehicle: other) was 100 % of control, the T/C [2] was 114 % of control and the T/C (dose: 200.0 mg/kg/injection, schedule: Q04DX002 (ip), vehicle: other) was 107 % of control. For the same compound, the T/C (dose: 265.0 mg/kg/injection, schedule: Q01DX001 (ip), vehicle: other) was 99 % of control, the T/C (dose: 265.0 mg/kg/injection, schedule: Q01DX009 (ip), vehicle: other) was 151 % of control and the T/C (dose: 265.0 mg/kg/injection, schedule: Q04DX003 (ip), vehicle: other) was 106 % of control. For the same compound, the T/C (dose: 400.0 mg/kg/injection, schedule: Q01DX001 (ip), vehicle: other) was 110 % of control, the T/C (dose: 400.0 mg/kg/injection, schedule: Q04DX002 (ip), vehicle: other) was 114 % of control and the T/C (dose: 400.0 mg/kg/injection, schedule: Q04DX003 (ip), vehicle: other) was 104 % of control.

In the case of `C=CCSCCC`, the T/C (dose: 100.0 mg/kg/injection, schedule: Q01DX009 (ip), vehicle: saline) is reported as 90 % of control, the T/C [3] is reported as 96 % of control and the T/C (dose: 200.0 mg/kg/injection, schedule: Q01DX009 (ip), vehicle: saline) is reported as 90 % of control. The T/C [4] was 104 % of control, the T/C (dose: 400.0 mg/kg/injection, schedule: Q01DX009 (ip), vehicle: saline) was 90 % of control and the T/C [5] was 91 % of control.

For `COc1cc(-c2ccc(NC(=O)CC(C)=O)c(OC)c2)ccc1NC(=O)CC(C)=O`, the T/C [1] was 94 % of control, the T/C (dose: 100.0 mg/kg/injection, schedule: Q04DX003 (ip), vehicle: saline with Tween-80) was 92 % of control and the T/C [2] was 101 % of control. For the same compound, the T/C (dose: 200.0 mg/kg/injection, schedule: Q04DX003 (ip), vehicle: saline with Tween-80) was 91 % of control, the T/C (dose: 400.0 mg/kg/injection, schedule: Q01DX009 (ip), vehicle: saline with Tween-80) was 99 % of control and the T/C (dose: 400.0 mg/kg/injection, schedule: Q04DX003 (ip), vehicle: saline with Tween-80) was 89 % of control.

`COc1cccc(/C=N/N2CCN(/N=C/c3cccc(OC)c3OC)CC2)c1OC` was tested, and the T/C [6] was 94 % of control, the T/C [7] was 98 % of control and the T/C [8] was 100 % of control.

For `C=CCSc1ccccc1C(=O)O`, the T/C (dose: 50.0 mg/kg/injection, schedule: Q01DX001 (ip), vehicle: carboxymethylcellulose (CMC)) was 122 % of control, the T/C [6] was 95 % of control and the T/C [7] was 106 % of control. The T/C [8] was 106 % of control.

In the case of `CCOC(=O)/C=C/C(=O)O.[Co]`, the T/C (dose: 12.5 mg/kg/injection, schedule: Q04DX003 (ip), vehicle: saline) is reported as 114 % of control, the T/C (dose: 25.0 mg/kg/injection, schedule: Q04DX003 (ip), vehicle: saline) is reported as 118 % of control and the T/C (dose: 50.0 mg/kg/injection, schedule: Q04DX003 (ip), vehicle: saline) is reported as 116 % of control. The T/C [3] was 118 % of control and 121 % of control.

`O=C(CCCCl)NCc1ccccc1[N+](=O)[O-]` was tested, and the T/C [9] was 96 % of control, the T/C [10] was 101 % of control and the T/C [11] was 90 % of control. For the same compound, the T/C [12] was 93 % of control, the T/C (dose: 400.0 mg/kg/injection, schedule: Q01DX009 (ip), vehicle: Klucel (hydroxypropylcellulose) (HPC)) was 91 % of control and the T/C [13] was 97 % of control.

`O=C(Nc1nccs1)C(F)(F)F` was tested, and the T/C [14] was 109 % of control, the T/C [15] was 109 % of control and the T/C [16] was 102 % of control.

In the case of `Cc1ccc(C(=O)C(F)(F)C(F)(F)C(F)(F)C(F)(F)C(F)(F)C(F)(F)C(F)(F)F)cc1`, the T/C [14] is reported as 105 % of control, the T/C [3] is reported as 93 % of control and the T/C [15] is reported as 102 % of control. The T/C [4] was 95 % of control, the T/C [16] was 103 % of control and the T/C [5] was 92 % of control.

For `CC(CC=C(CCC(C)CC(C)(C)C)CCC(C)CC(C)(C)C)CC(C)(C)C` (stereo not given), the T/C (dose: 75.0 mg/kg/injection, schedule: Q01DX001 (ip), vehicle: saline with Tween-80) was 99 % of control, the T/C (dose: 150.0 mg/kg/injection, schedule: Q01DX001 (ip), vehicle: saline with Tween-80) was 100 % of control and the T/C (dose: 300.0 mg/kg/injection, schedule: Q01DX001 (ip), vehicle: saline with Tween-80) was 97 % of control.

With `ClCC1=Nc2c(Cl)ncnc2NN1` the T/C (dose: 6.25 mg/kg/injection, schedule: Q04DX003 (ip), vehicle: saline with Tween-80) was 94 % of control, the T/C (dose: 12.5 mg/kg/injection, schedule: Q04DX003 (ip), vehicle: saline with Tween-80) was 96 % of control and the T/C (dose: 25.0 mg/kg/injection, schedule: Q01DX001 (ip), vehicle: saline with Tween-80) was 95 % of control. For the same compound, the T/C (dose: 25.0 mg/kg/injection, schedule: Q04DX003 (ip), vehicle: saline with Tween-80) was 91 % of control.

In the case of `CC(C)CCCC(C)C1CCC2C3CC(=O)NC4CC(Cl)CCC4(C)C3CCC12C` (stereo not given), the T/C [14] is reported as 89 % of control, the T/C [3] is reported as 86 % of control and the T/C [15] is reported as 93 % of control. For the same compound, the T/C [16] was 91 % of control.

With `CC(SCc1cc(=O)[nH]c(=O)[nH]1)C(=O)O` (stereo not given) the T/C [3] was 98 % of control, the T/C [4] was 98 % of control and the T/C [5] was 96 % of control.

In the case of `O=[N+]([O-])c1ccc(Cl)c2nonc12`, the T/C (dose: 1.65 mg/kg/injection, schedule: Q04DX002 (ip), vehicle: Klucel (hydroxypropylcellulose) (HPC)) is reported as 89 % of control, the T/C (dose: 3.12 mg/kg/injection, schedule: Q04DX002 (ip), vehicle: Klucel (hydroxypropylcellulose) (HPC)) is reported as 92 % of control and the T/C (dose: 6.25 mg/kg/injection, schedule: Q04DX002 (ip), vehicle: Klucel (hydroxypropylcellulose) (HPC)) is reported as 94 % of control.

With `O=Cc1[nH]c(=S)[nH]c(=O)c1Cc1ccccc1Cl` the T/C [10] was 101 % of control, the T/C [12] was 98 % of control and the T/C [13] was 97 % of control.

For `N#CC(C#N)=Cc1cccc2ccccc12`, the T/C (dose: 50.0 mg/kg/injection, schedule: Q01DX009 (ip), vehicle: Klucel (hydroxypropylcellulose) (HPC)) was 97 % of control and 91 % of control, the T/C [9] was 95 % of control and 103 % of control and the T/C [10] was 102 % of control. For the same compound, the T/C [11] was 96 % of control and 105 % of control, the T/C [12] was 97 % of control and the T/C [13] was 103 % of control.

In the case of `CN(CCN(CCCl)c1ccc(N)cc1)c1ccc(N)cc1`, the T/C (dose: 10.0 mg/kg/injection, schedule: Q04DX003 (ip), vehicle: saline) is reported as 110 % of control, the T/C (dose: 20.0 mg/kg/injection, schedule: Q04DX003 (ip), vehicle: saline) is reported as 110 % of control and the T/C (dose: 40.0 mg/kg/injection, schedule: Q04DX003 (ip), vehicle: saline) is reported as 93 % of control.

With `c1ccc(C2(c3ccccc3)c3ccc([nH]3)C(c3ccccc3)(c3ccccc3)c3ccc([nH]3)C(c3ccccc3)(c3ccccc3)c3ccc([nH]3)C(c3ccccc3)(c3ccccc3)c3ccc2[nH]3)cc1` the T/C [14] was 97 % of control, the T/C [15] was 100 % of control and the T/C [16] was 100 % of control.

With `CN1C(OO)CCOP1(=O)N(CCCl)CCCl` (stereo not given) the T/C (dose: 75.0 mg/kg/injection, schedule: Q01DX001 (ip), vehicle: DMSO) was 96 % of control and the T/C (dose: 150.0 mg/kg/injection, schedule: Q01DX001 (ip), vehicle: DMSO) was 99 % of control.

For `Nc1nc(-c2ccccc2)c2ccccc2n1`, the T/C [6] was 101 % of control, the T/C [7] was 93 % of control and the T/C [8] was 104 % of control.

In the case of `COc1cccc(N=Nc2c(N)nc(N)nc2N)c1`, the T/C (dose: 75.0 mg/kg/injection, schedule: Q01DX001 (ip), vehicle: carboxymethylcellulose (CMC)) is reported as 104 % of control, the T/C (dose: 150.0 mg/kg/injection, schedule: Q01DX001 (ip), vehicle: carboxymethylcellulose (CMC)) is reported as 100 % of control and the T/C (dose: 300.0 mg/kg/injection, schedule: Q01DX001 (ip), vehicle: carboxymethylcellulose (CMC)) is reported as 109 % of control.

For `O=C(Nc1cccc2cccnc12)C(F)(F)F`, the T/C [17] was 91 % of control, the T/C [14] was 104 % of control and the T/C [15] was 91 % of control. For the same compound, the T/C [16] was 93 % of control.

For `CC(C)=NNCCO`, the T/C (dose: 12.5 mg/kg/injection, schedule: Q01DX001 (ip), vehicle: saline) was 103 % of control, the T/C (dose: 25.0 mg/kg/injection, schedule: Q01DX001 (ip), vehicle: saline) was 103 % of control and the T/C [17] was 100 % of control.
